Test results reported in ChEMBL document CHEMBL1148514, “Development of lipopeptides for inhibiting 20S proteasomes” (Bioorg Med Chem Lett, 2006).
Residues, ends and D or L forms follow the SMILES beside them.

Tests used:
[1] = molecular target: T1, Proteasome Macropain subunit (Saccharomyces cerevisiae S288c, UniProt P22141); assay: Inhibition of trypsin like activity of yeast 20S proteasome
T1 sequence (P22141 whole entry): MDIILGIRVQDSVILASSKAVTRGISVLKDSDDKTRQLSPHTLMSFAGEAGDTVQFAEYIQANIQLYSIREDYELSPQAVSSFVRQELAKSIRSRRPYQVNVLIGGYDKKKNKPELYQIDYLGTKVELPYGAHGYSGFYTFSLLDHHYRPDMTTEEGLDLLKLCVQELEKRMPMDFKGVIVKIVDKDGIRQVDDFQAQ

[2] = molecular target: T2, Proteasome component C5 (Saccharomyces cerevisiae S288c) (UniProt P23724); assay: Activation of post acid activity of yeast 20S proteasome
T2 sequence (whole entry): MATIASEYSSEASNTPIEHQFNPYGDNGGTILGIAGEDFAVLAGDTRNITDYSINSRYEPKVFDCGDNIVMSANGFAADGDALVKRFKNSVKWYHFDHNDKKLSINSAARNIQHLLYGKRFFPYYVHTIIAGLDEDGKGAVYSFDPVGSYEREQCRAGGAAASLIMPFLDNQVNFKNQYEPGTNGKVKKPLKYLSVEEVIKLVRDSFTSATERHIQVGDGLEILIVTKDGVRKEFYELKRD

[3] = molecular target: T3, Proteasome Macropain subunit PRE2 (Saccharomyces cerevisiae S288c, UniProt P30656); assay: Inhibition of chymotrypsin like activity of yeast 20S proteasome
T3 sequence (P30656 whole entry): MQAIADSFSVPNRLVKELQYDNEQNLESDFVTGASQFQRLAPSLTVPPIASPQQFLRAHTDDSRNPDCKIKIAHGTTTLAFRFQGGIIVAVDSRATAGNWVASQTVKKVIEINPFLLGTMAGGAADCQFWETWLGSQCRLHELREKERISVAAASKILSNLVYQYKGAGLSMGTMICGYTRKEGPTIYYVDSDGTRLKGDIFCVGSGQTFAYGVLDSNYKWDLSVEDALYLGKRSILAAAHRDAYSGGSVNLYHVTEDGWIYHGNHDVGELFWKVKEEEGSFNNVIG

[4] = molecular target: T2, Proteasome component C5 (Saccharomyces cerevisiae S288c); assay: Inhibition of post acid activity of yeast 20S proteasome at 80 uM
[5] = molecular target: T4, Proteasome Macropain subunit (Saccharomyces cerevisiae S288c) (UniProt P22141); assay: Inhibition of trypsin like activity of yeast 20S proteasome at 80 uM
T4 sequence (whole entry): T1 sequence (P22141 whole entry)

[6] = molecular target: T5, Proteasome Macropain subunit PRE2 (Saccharomyces cerevisiae S288c) (UniProt P30656); assay: Activation of chymotrypsin like activity of yeast 20S proteasome
T5 sequence (whole entry): T3 sequence (P30656 whole entry)

Proteasome component C5 [7] = molecular target: T6, Proteasome component C5 (Saccharomyces cerevisiae S288c, UniProt P23724); assay: Inhibition of post acid activity of yeast 20S proteasome
T6 sequence (P23724 whole entry): T2 sequence (whole entry)

[8] = molecular target: T4, Proteasome Macropain subunit (Saccharomyces cerevisiae S288c); assay: Activation of trypsin like activity of yeast 20S proteasome
[9] = molecular target: T5, Proteasome Macropain subunit PRE2 (Saccharomyces cerevisiae S288c); assay: Inhibition of chymotrypsin like activity of yeast 20S proteasome at 625 uM
[10] = molecular target: T4, Proteasome Macropain subunit (Saccharomyces cerevisiae S288c); assay: Inhibition of trypsin like activity of yeast 20S proteasome at 625 uM
[11] = molecular target: T2, Proteasome component C5 (Saccharomyces cerevisiae S288c); assay: (§1) Inhibition of post acid activity of yeast 20S proteasome at 625 uM
Proteasome component C5 [12] = molecular target: T6, Proteasome component C5; assay: as §1

| Molecule | Ki [1] [µM] | Ki [3] [µM] | inhibition [10] [%] | other results |
| --- | --- | --- | --- | --- |
| CCCCCCCCCCCCCC(=O)N[C@H](C(=O)N[C@H](C(=O)N[C@H](C(=O)N[C@@H](Cc1ccc(O)cc1)C(=O)N[C@@H](CCCCN)C(=O)N[C@@H](Cc1ccccc1)C(=O)O)[C@@H](C)O)C(C)C)[C@@H](C)O (HELM PEPTIDE1{[CCCCCCCCCCCCCC(=O)[*:2]].T.V.T.Y.K.F}$$$$V2.0) | 80 | – | – | Activity [2]: 1.2 |
| CCCCCCCCCCCCCCCC(=O)N[C@@H](Cc1ccccc1)C(=O)N[C@@H](CCCCN)C(=O)N[C@@H](Cc1ccccc1)C(=O)O (HELM PEPTIDE1{[CCCCCCCCCCCCCCCC(=O)[*:2]].F.K.F}$$$$V2.0) | > 80 | 30 | – | inhibition [4]: < 10% |
| CCCCCCCCCCCCCCCC(=O)N[C@H](C(=O)N[C@H](C(=O)N[C@H](C(=O)N[C@@H](Cc1ccccc1)C(=O)N[C@@H](CC(=O)O)C(=O)N[C@@H](Cc1ccc(O)cc1)C(=O)O)[C@@H](C)O)[C@@H](C)CC)[C@@H](C)O (HELM PEPTIDE1{[CCCCCCCCCCCCCCCC(=O)[*:2]].T.I.T.F.D.Y}$$$$V2.0) | – | 80 | – | inhibition [5]: < 10%; Activity [2]: 1.5 |
| CCCCCCCCCCCCCCCC(=O)N[C@H](C(=O)N[C@H](C(=O)N[C@H](C(=O)N[C@@H](Cc1ccc(O)cc1)C(=O)N[C@@H](CCCCN)C(=O)N[C@@H](Cc1ccccc1)C(=O)O)[C@@H](C)O)C(C)C)[C@@H](C)O (HELM PEPTIDE1{[CCCCCCCCCCCCCCCC(=O)[*:2]].T.V.T.Y.K.F}$$$$V2.0) | – | – | – | Activity [6]: 1.6 |
| CCCCCCCCCCCCCCCC(=O)N[C@@H](Cc1ccc(O)cc1)C(=O)N[C@@H](CC(=O)O)C(=O)N[C@@H](CC(C)C)C(=O)O (HELM PEPTIDE1{[CCCCCCCCCCCCCCCC(=O)[*:2]].Y.D.L}$$$$V2.0) | > 80 | 20 | – | Ki (Proteasome component C5 [7]): 15 µM |
| CCCCCCCCCCCCCCCC(=O)N[C@@H](Cc1ccc(O)cc1)C(=O)N[C@@H](CCC(=O)O)C(=O)N[C@@H](CC(C)C)C(=O)O (HELM PEPTIDE1{[CCCCCCCCCCCCCCCC(=O)[*:2]].Y.E.L}$$$$V2.0) | > 80 | 18 | – | Ki (Proteasome component C5 [7]): 15 µM |
| CCCCCCCCCCCCCCCC(=O)N[C@@H](Cc1ccc(O)cc1)C(=O)N[C@@H](CCCCN)C(=O)N[C@@H](Cc1ccccc1)C(=O)O (HELM PEPTIDE1{[CCCCCCCCCCCCCCCC(=O)[*:2]].Y.K.F}$$$$V2.0) | > 80 | 81 | – | inhibition [4]: < 10% |
| CCCCCCCCCCCCCCCCCC(=O)N[C@H](C(=O)N[C@H](C(=O)N[C@H](C(=O)N[C@@H](Cc1ccccc1)C(=O)N[C@@H](CC(=O)O)C(=O)N[C@@H](Cc1ccc(O)cc1)C(=O)O)[C@@H](C)O)[C@@H](C)CC)[C@@H](C)O (HELM PEPTIDE1{[CCCCCCCCCCCCCCCCCC(=O)[*:2]].T.I.T.F.D.Y}$$$$V2.0) | – | 39 | – | Activity [8]: 1.6; Activity [2]: 1.3 |
| H-TITYDF-OH | – | – | < 10 | Ki (Proteasome component C5 [7]): > 625 µM; inhibition [9]: < 10% |
| H-TITYEY-OH | – | – | < 10 | inhibition [9]: < 10%; inhibition [11]: < 10% |
| H-TITYKF-OH | – | 151 | < 10 | Ki (Proteasome component C5 [12]): 260 µM |
| H-TVTYDY-OH | – | – | < 10 | inhibition [9]: < 10%; inhibition [11]: < 10% |
| H-TVTYKL-OH | – | 545 | < 10 | inhibition [11]: < 10% |
